Experimental data published in patent US20130065818A1, “Arylamide Compounds And Compositions And Uses Thereof” (POLYMEDIX, priority 2006, published 2013).
Several values for one entry are separate records, joined by “and”; a condition that tells them apart may be missing. Equal values may be shown once. Entries after “also recorded” stand apart in the source; their conditions may differ.

Assays:
[1] = system: fluoroquinolone-resistant, methicillin-resistant Staphylococcus aureus (K950); experiment: NZW rabbit keratitis model, corneal colony counts; format: in vivo; settings: for Log10 CFU/ml, Median / Log10 CFU/ml Maximum / Log10 CFU/ml Minimum / Log10 CFU/ml, Mean: 6 corneas; for Mean Rank, Kruskal-Wallis ANOVA with Duncan Multiple Comparisons Test - Log10 CFU/ml / Statistical comparison of colony counts between groups (< = significantly fewer colony counts): P = 0.05; for Log10 CFU/ml Maximum / Log10 CFU/ml Minimum / Log10 CFU/ml, Mean: Descriptive Statistics; for Reduction of colony counts compared with the Saline Control: corneal epithelium intact or removed; for Log10 CFU/ml: individual corneas (Row 1-6; K-3, K-4); for CFU/ml: individual corneas (Row 1-6; Ker-3, Ker-4)
Excerpt: One purpose of the following experiments was to compare the efficacy of 1% Oligomer 2, 0.5% Oligomer 2, and 5% vancomycin in the treatment of a fluoroquinolone-resistant, methicillin-resistant Staphylococcus aureus infection in the NZW rabbit keratitis model with or without intact corneal epithelia.
Nothing was done to the right eyes.
One purpose of the following experiments was to compare the efficacy of 0.25% Oligomer 2, with and without 0.005% benzalkonium chloride, and 5% vancomycin in the treatment of a fluoroquinolone-resistant, methicillin-resistant Staphylococcus aureus infection in the NZW rabbit keratitis model with or without intact corneal epithelia. The 0.005% benzalkonium chloride has been added to try to increase the penetration of 0.25% Oligomer 2 through the corneal epithelium.
One purpose of the following experiments was to determine the efficacy of 0.25% Oligomer 4, with and without 200 μM Farnesol, and 200 μM Farnesol in the treatment of a fluoroquinolone-resistant and methicillin-resistant Staphylococcus aureus infection in the NZW rabbit keratitis model with or without intact corneal epithelia. The 200 μM Farnesol has been added to try to increase the efficacy and penetration of 0.25% Oligomer 4 through the corneal epithelium.

[2] = Draize ocular toxicity scoring, NZW rabbit ocular toxicity model; format: in vivo; parameters: key to MMTS / Score (Draize total): Draize total score of cornea, iris and conjunctivae; maximum 110; III. B. Chemosis / I. A. Cornea opacity / I. B. Area of cornea involved / II. A. Iris / III. A. Conjunctivae redness / III. C. Discharge: scale not given here
Procedure: The ocular toxicity of several concentrations of Oligomer 2, using the Draize ocular toxicity scoring system, in the NZW rabbit ocular toxicity model was carried out.
Rabbits were treated in both eyes with (37 μl) topical drops every 30 minutes for 3 hours (7 total doses). One rabbit was treated with Tris-Buffered Saline and served as a negative control. Rabbits were evaluated in a masked fashion for ocular toxicity by an ophthalmologist with specialty training in corneal and external disease. Ocular toxicity was evaluated using the Draize scoring system after treatment on Day 0 and on Day 3 post treatment for any delayed toxicity. (Draize et al., J. Pharmacol. Exp. Ther., 1944, 82, 377-390).
A brief summary of the Draize scoring system for ocular lesions is provided below
Total Maximum Score: 110 represents the sum of all scores obtained for the cornea, iris and conjunctivae.
The ocular toxicity of several formulations of Oligomer 4 with and without farnesol, using the Draize ocular toxicity scoring system, in the NZW rabbit ocular toxicity model was carried out.
Rabbits were treated in both eyes with (37 μl) topical drops every 30 minutes for 3 hours (7 total doses). One rabbit was treated with Tris-Buffered Saline and served as a negative control. Rabbits were evaluated in a masked fashion for ocular toxicity by an ophthalmologist with specialty training in corneal and external disease 30 minutes after the final dose. Ocular toxicity was evaluated using the Draize scoring system (see above) after treatment on Day 0 and on Day 2 post treatment for any delayed toxicity.

[3] = 100 μM Farnesol in 1% PG and TBS, Day 0
[4] = 100 μM Farnesol in 1% PG and TBS, Day 0, per eye
[5] = 100 μM Farnesol in 1% PG and TBS, Day 2
[6] = 100 μM Farnesol in 1% PG and TBS, Day 2, per eye
[7] = 100 μM in 1% Propylene Glycol (PG) and TBS, Day 0
[8] = 100 μM in 1% Propylene Glycol (PG) and TBS, Day 2
[9] = 200 μM Farnesol in 1% PG and TBS, Day 0
[10] = 200 μM Farnesol in 1% PG and TBS, Day 0, per eye
[11] = 200 μM Farnesol in 1% PG and TBS, Day 2
[12] = 200 μM Farnesol in 1% PG and TBS, Day 2, per eye
[13] = 200 μM in 1% Propylene Glycol (PG) and TBS, Day 0
[14] = 200 μM in 1% Propylene Glycol (PG) and TBS, Day 2

## CC(C)=CCCC(C)=CCCC(C)=CCO [Farnesol]
[1]; Abraded Epithelium
  Log10 CFU/ml, Median: 6.849 Log10 CFU/ml and 6.8489 Log10 CFU/ml
  Mean Rank, Kruskal-Wallis ANOVA with Duncan Multiple Comparisons Test - Log10 CFU/ml: 23.5000
  Statistical comparison of colony counts between groups (< = significantly fewer colony counts): PMX = P + F < ONSET < FARN = CON
  Log10 CFU/ml Maximum: 6.916 Log10 CFU/ml
  Log10 CFU/ml Minimum: 6.109 Log10 CFU/ml
  Log10 CFU/ml, Mean: 6.626 Log10 CFU/ml
  Log10 CFU/ml: 6.875 Log10 CFU/ml and 6.109 Log10 CFU/ml and 6.146 Log10 CFU/ml and 6.889 Log10 CFU/ml and 6.823 Log10 CFU/ml and 6.916 Log10 CFU/ml
  CFU/ml: 7500000 CFU/ml and 1285000 CFU/ml and 1400000 CFU/ml and 7750000 CFU/ml and 6650000 CFU/ml and 8250000 CFU/ml
[1]; Intact Epithelium
  Log10 CFU/ml, Median: 7.3000 Log10 CFU/ml
  Log10 CFU/ml Maximum: 7.6551 Log10 CFU/ml
  Log10 CFU/ml Minimum: 7.1818 Log10 CFU/ml
  Log10 CFU/ml, Mean: 7.3624 Log10 CFU/ml
  Mean Rank, Kruskal-Wallis ANOVA with Duncan Multiple Comparisons Test - Log10 CFU/ml: 22.1667
  Statistical comparison of colony counts between groups (< = significantly fewer colony counts): ONSET = PMX = P + F < FARN = CON
  Log10 CFU/ml: 7.182 Log10 CFU/ml and 7.259 Log10 CFU/ml and 7.479 Log10 CFU/ml and 7.655 Log10 CFU/ml and 7.27 Log10 CFU/ml and 7.33 Log10 CFU/ml
  CFU/ml: 15200000 CFU/ml and 18150000 CFU/ml and 30100000 CFU/ml and 45200000 CFU/ml and 18600000 CFU/ml and 21400000 CFU/ml
[1]; Abraded vs. Intact Epithelium, Mann-Whitney Test
  Effect of Abraded Epithelium on Effectiveness of Each Test Solution (colony counts, < = significantly fewer): FARN-AE < FARN-IE; also recorded: Abraded < Intact
[1]; Example 11, Mann-Whitney test, < = significantly fewer colony counts
  Effect of Abraded Epithelium on Effectiveness of Each Test Solution (colony counts, abraded vs. intact): Abraded = Intact
[1]; IE Log vs AE Log of the same test solution
  Point estimate for ETA1-ETA2 (Mann-Whitney, Log10 CFU/ml), Intact minus Abraded Epithelium: Point estimate for ETA1-ETA2 is 0.5964
[1]; Ker-3 (Example 11), abraded epithelium, 21 doses
  Statistical comparison of corneal colony counts (< = significantly fewer colony counts): PMX═P+F═ONSET<FARN═CON
[1]; Ker-3 (Example 11), intact epithelium, 21 doses
  Statistical comparison of corneal colony counts (< = significantly fewer colony counts): ONSET=PMX═P+F<FARN═CON
[1]; Ker-3
  Reduction of colony counts compared with the Saline Control: NOT effective
[1]; Ker-4
  Colony counts, corneal epithelium removed compared with intact epithelium: significantly fewer colony counts in eyes with the corneal epithelium removed
  Reduction of colony counts compared with the Saline Control: not effective
[1]; Ker-4 (Example 12), abraded epithelium
  Statistical comparison of corneal colony counts (< = significantly fewer colony counts): PMX═P+F<ONSET<FARN═CON
[1]; Ker-4 (Example 12), intact epithelium
  Statistical comparison of corneal colony counts (< = significantly fewer colony counts): ONSET=PMX═P+F<FARN═CON
[2]; [3]
  Classification of eye irritation: Non-Irritating
  MMTS: 0.0
  MMTS classification symbol: N (0.0-0.5 Non-Irritating)
[2]; [4]
  I. A. Cornea opacity: 0
  I. B. Area of cornea involved: 0
  I. Tot (cornea, A × B × 5): 0
  II. A. Iris: 0
  II. Tot (iris, A × 5): 0
  III. A. Conjunctivae redness: 0
  III. B. Chemosis: 0
  III. C. Discharge: 0
  III. Tot (conjunctivae, (A + B + C) × 2): 0
  Score (Draize total): 0
[2]; [5]
  MMTS: 1.5
  MMTS classification symbol: PN (0.6-2.5 Practically Non-Irritating)
[2]; [6]
  I. A. Cornea opacity: 0
  I. B. Area of cornea involved: 0
  I. Tot (cornea, A × B × 5): 0
  II. A. Iris: 0
  II. Tot (iris, A × 5): 0
  III. A. Conjunctivae redness: 0
  III. B. Chemosis: 0
[2]; [7]
  MMTS: 0.0
  MMTS classification: N (0.0-0.5 Non-Irritating)
[2]; [8]
  MMTS: 1.5
  MMTS classification: PN (0.6-2.5 Practically Non-Irritating)
[2]; [9]
  Classification of eye irritation: Non-Irritating
  MMTS: 0.5
  MMTS classification symbol: N (0.0-0.5 Non-Irritating)
[2]; [10]
  I. A. Cornea opacity: 0
  I. B. Area of cornea involved: 0
  I. Tot (cornea, A × B × 5): 0
  II. A. Iris: 0
  II. Tot (iris, A × 5): 0
  III. A. Conjunctivae redness: 0
  III. B. Chemosis: 0
[2]; [11]
  Classification of eye irritation: Non-Irritating
  MMTS: 0.5
  MMTS classification symbol: N (0.0-0.5 Non-Irritating)
[2]; [12]
  I. A. Cornea opacity: 0
  I. B. Area of cornea involved: 0
  I. Tot (cornea, A × B × 5): 0
  II. A. Iris: 0
  II. Tot (iris, A × 5): 0
  III. A. Conjunctivae redness: 0
  III. B. Chemosis: 0
[2]; [13]
  MMTS: 0.5
  MMTS classification: N (0.0-0.5 Non-Irritating)
[2]; [14]
  MMTS: 0.5
  MMTS classification: N (0.0-0.5 Non-Irritating)

## N=C(N)NCCCCC(=O)Nc1cc(C(F)(F)F)cc(NC(=O)c2cc(C(=O)Nc3cc(C(F)(F)F)cc(NC(=O)CCCCNC(=N)N)c3SCCN)ncn2)c1SCCN [Oligomer 2]
[1]; Ker-1 (Example 9), abraded (removed) epithelium, drops every 15 min, 19 doses
  Statistical comparison of corneal colony counts (< = significantly fewer colony counts): effective
[1]; Ker-2 (Example 10), abraded (removed) epithelium, drops every 15 min, 21 doses
  Statistical comparison of corneal colony counts (< = significantly fewer colony counts): effective
[1]; Ker-2, 0.25% Oligomer 2
  Effect of addition of 0.005% benzalkonium chloride (BAK) on penetration through the intact corneal epithelium: did not aid in the penetration
[1]; in vivo
  Penetration of the corneal epithelium into the corneal stroma: does not penetrate the corneal epithelium
[2]; NZW, rabbit, in vivo, 0 day
  I. A. Cornea opacity: 0
  I. B. Area of cornea involved: 0
  I. Tot (cornea, A × B × 5): 0
[2]; NZW, rabbit, in vivo, 3 day
  I. A. Cornea opacity: 0
  I. B. Area of cornea involved: 0
  I. Tot (cornea, A × B × 5): 0
  II. A. Iris: 0
  II. Tot (iris, A × 5): 0
  III. A. Conjunctivae redness: 0
  III. B. Chemosis: 0
  III. C. Discharge: 0
  III. Tot (conjunctivae, (A + B + C) × 2): 0
  Score (Draize total): 0
[2]; rabbit, in vivo
  Dose dependence of ocular toxicity: dose dependent ocular toxicity
  Stinging / acute reactions upon instillation: does not sting upon instillation
